Reference: US20220380366A1, “HETEROCYCLIC SULFOXIMINE COMPOUND AND INTERMEDIATE THEREOF, PREPARATION METHOD THEREFOR, AND APPLICATION THEREOF” (priority 2019, published 2022)
Where two headings read alike, the source gives them in different places.

How the values were obtained:
[1] = molecular target: T1, wild-type RET kinase (Homo sapiens, UniProt P07949); assay: Biochemical IC50 of wild-type RET kinase (33P-ATP filter binding, Reaction Biology)
T1 construct: purchased Reaction Biology Corporation (contract assay; enzyme is the CRO's)
Method: (§1) For detailed test methods, the following references were referred to: T. Anastassiadis, S. W. Deacon, K. Devarajan, H. Ma, J. R. Peterson. […] Nat. Biotech.
(§2) The compounds of the present invention were dissolved in dimethyl sulfoxide (DMSO) to prepare 10 mM stock solutions, and ten different doses by 3-fold serial dilutions from 10 mM were prepared. The ATP concentration used in this determination was 1 μM.
(§3) Base reaction buffer: 20 mM 4-(2-hydroxyethyl)-1-piperazineethanesulfonic acid buffer (Hepes, pH 7.5), 10 mM magnesium chloride, 1 mM ethylene glycol-bis(3-aminoethylether)-N,N,N′,N′-tetraacetic acid (EGTA), 0.02% Brij™-35 (purchased from ThermoFisher Scientific), 0.02 mg/mL bovine serum albumin (BSA), 0.1 mM sodium orthovanadate (Na3VO4), 2 mM dithiothreitol (DTT), 1% dimethyl sulfoxide (DMSO).
(§4) a) adding the corresponding substrate to a freshly prepared base reaction buffer;
(§5) b) adding necessary cofactors;
(§6) c) adding kinase and shake gently;
(§7) d) adding the compounds in DMSO using Acoustic technology (Echo550; nanoliter range) and incubating at room temperature for 20 minutes;
(§8) e) adding 33P-ATP (specific activity 10 μCi/μL) to initiate the reaction;
(§9) f) incubating the kinase reaction at room temperature for 2 hours;
(§10) g) spotting the resultant of reaction on P81 ion exchange paper (purchased from Whatman);
(§11) h) detecting kinase activity by filter binding assay.
(§12) IC50 values were generated using Prism (GraphPad software).

[2] = molecular target: T2, RET(V804M) mutant (Homo sapiens, UniProt P07949, V804M); assay: Biochemical IC50 of RET(V804M) mutant (33P-ATP filter binding, Reaction Biology)
T2 construct: purchased Reaction Biology Corporation (contract assay; enzyme is the CRO's)
Method: as §1, §2, §3, §4, §5, §6, §7, §8, §9, §10, §11, §12

[3] = molecular target: T3, RET-CCDC6 (Homo sapiens, UniProt P07949); assay: Biochemical IC50 of RET-CCDC6 fusion (33P-ATP filter binding, Reaction Biology)
T3 construct: CCDC6 (fusion partner, UniProt Q16204); purchased Reaction Biology Corporation (contract assay; enzyme is the CRO's); the other entry of the earlier key: CCDC6 (Q16204, Coiled-coil domain-containing protein 6)
T3 sequence (P07949 with tags, fused parts or gaps): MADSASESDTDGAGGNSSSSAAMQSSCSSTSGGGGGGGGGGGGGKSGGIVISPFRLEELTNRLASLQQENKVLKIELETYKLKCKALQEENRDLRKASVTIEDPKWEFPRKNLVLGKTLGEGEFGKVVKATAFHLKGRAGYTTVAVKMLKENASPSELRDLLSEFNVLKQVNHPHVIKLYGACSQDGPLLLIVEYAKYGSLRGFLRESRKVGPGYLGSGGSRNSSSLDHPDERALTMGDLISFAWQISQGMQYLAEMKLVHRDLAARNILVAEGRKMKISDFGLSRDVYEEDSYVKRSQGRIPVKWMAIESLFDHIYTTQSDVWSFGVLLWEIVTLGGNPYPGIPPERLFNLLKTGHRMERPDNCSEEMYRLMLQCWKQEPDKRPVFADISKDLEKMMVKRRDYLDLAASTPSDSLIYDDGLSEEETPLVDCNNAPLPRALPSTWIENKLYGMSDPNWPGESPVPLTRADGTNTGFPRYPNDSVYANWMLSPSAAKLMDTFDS
Method: as §1, §2, §3, §4, §5, §6, §7, §8, §9, §10, §11, §12

[4] = test system: Phospho-RET in LC-2/ad lung cancer cells; assay: Phospho-RET ELISA in LC-2/ad tumor cells; format: cell-based; conditions: Homo sapiens, 1 h, read-out: Cell IC50 Phospho-RET
Method: (§13) The compounds of the present invention were dissolved in dimethyl sulfoxide (DMSO) to prepare 10 mM stock solutions, and ten different doses by 3-fold serial dilutions from 10 mM were prepared. An ELISA assay format was used in the test.
(§14) PathScan® Phospho-Ret (panTyr) and p44/42 MAPK (Thr202/Tyr204) (ERK) Sandwich ELISA kits were purchased from Cell Signaling Technology. The LC-2/ad lung cancer cell line was purchased from Sigma-Aldrich. […] The medium was supplemented with 10% fetal bovine serum (FBS), 100 μg/mL penicillin and 100 μg/mL streptomycin, and the cultures were maintained at 37° C. in a humidified atmosphere of 5% CO2 and 95% air.
(§15) a) 1.5×10^4 LC-2/ad cells were seeded in the wells of a 96-well tissue culture plate overnight;
(§16) b) the cells were treated with DMSO or the test compound in DMSO (the initial concentration was 1 μM, and ten doses by 3-fold serial dilutions) for one hour;
(§17) The plate was shaken for 1 minute, then placed on a rocking platform at 4° C. for 30 minutes;
(§18) d) 80 μL/well of lysate was added to the appropriate wells of each ELISA plate and the plate was incubated overnight at 4° C. on a rocking platform;
(§19) e) the contents of the plate were discarded into a container and the wells were washed for four times with 200 μL/well of 1×ELISA wash buffer;
(§20) f) 100 μL of reconstituted Phospho-Ret(panTyr) or Phospho-ERK(Thr202/Tyr204; p44/42MAPK) detection antibody was added to the appropriate wells and the plate was incubated at 37° C. for 1 hour;
(§21) g) the washing procedure was repeated and 100 μL of reconstituted HRP-linked secondary antibody was added to each well of two plates and the plates were incubated at 37° C. for 30 minutes;
(§22) h) the washing procedure was repeated, 100 μL of TMB substrate was added to each well, and the plates were incubated at 37° C. for 45 minutes;
(§23) i) 100 μL of STOP solution was added to each well and the plate was gently shaken for a few seconds.

[5] = test system: Phospho-ERK in LC-2/ad lung cancer cells; assay: Phospho-ERK ELISA in LC-2/ad tumor cells; format: cell-based; conditions: Homo sapiens, 1 h, read-out: Cell IC50 Phospho-ERK
Method: as §13, §14, §15, §16, §17, §18, §19, §20, §21, §22, §23

[6] = wild-type RET kinase, ATP 1 μM, 33P-ATP filter binding, read-out: Biochemical IC50 RET
[7] = RET(V804M) mutant, ATP 1 μM, 33P-ATP filter binding, read-out: Biochemical IC50 RET (V804M)
[8] = RET-CCDC6 fusion, ATP 1 μM, 33P-ATP filter binding, read-out: Biochemical IC50 RET-CCDC6

T1 sequence (P07949 29-1114): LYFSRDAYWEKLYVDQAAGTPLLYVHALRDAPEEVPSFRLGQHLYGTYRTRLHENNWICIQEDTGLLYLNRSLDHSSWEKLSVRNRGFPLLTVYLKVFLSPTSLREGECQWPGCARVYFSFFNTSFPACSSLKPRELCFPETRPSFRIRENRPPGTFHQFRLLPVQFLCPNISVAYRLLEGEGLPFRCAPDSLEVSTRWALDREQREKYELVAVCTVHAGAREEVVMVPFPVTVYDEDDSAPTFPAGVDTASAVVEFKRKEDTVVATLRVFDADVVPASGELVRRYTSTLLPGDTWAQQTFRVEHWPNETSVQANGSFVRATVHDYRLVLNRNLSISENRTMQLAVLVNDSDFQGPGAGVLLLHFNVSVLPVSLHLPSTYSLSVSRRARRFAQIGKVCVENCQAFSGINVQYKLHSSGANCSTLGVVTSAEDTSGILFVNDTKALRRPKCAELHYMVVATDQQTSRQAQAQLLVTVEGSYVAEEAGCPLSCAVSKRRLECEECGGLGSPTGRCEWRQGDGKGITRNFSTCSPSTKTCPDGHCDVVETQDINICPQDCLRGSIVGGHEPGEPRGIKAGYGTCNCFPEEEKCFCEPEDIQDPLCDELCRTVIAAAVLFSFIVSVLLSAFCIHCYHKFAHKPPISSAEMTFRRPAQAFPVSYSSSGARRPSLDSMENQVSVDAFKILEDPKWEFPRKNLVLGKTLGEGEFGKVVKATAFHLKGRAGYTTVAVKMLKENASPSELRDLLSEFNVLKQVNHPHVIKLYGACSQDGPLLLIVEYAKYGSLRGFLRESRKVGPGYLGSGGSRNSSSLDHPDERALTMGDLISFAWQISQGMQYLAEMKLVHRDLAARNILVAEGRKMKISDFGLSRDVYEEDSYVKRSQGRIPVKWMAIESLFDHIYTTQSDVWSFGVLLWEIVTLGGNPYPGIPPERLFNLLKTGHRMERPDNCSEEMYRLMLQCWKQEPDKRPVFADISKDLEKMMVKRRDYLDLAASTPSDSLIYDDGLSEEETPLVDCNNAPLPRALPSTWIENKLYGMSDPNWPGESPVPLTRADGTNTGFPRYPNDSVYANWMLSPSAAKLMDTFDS
T2 sequence (P07949 29-1114 V804M): as the sequence (P07949 29-1114) above, with V776M counted along it

Structure (SMILES) | IC50 [1] [nM] | IC50 [2] [nM] | IC50 [3] [nM] | IC50 ([4]; LC-2-ad) [nM] | IC50 [5] [nM] | IC50 [1, 6] [nM] | IC50 [2, 7] [nM] | IC50 [3, 8] [nM] | IC50 ([4]; LC-2/ad lung cancer cells, one hour treatment, sandwich ELISA) [nM]
COc1ccc(CN=S2(=O)CCN(c3ccc(-c4nc(-c5cnn(C)c5)cn5ncc(C#N)c45)cn3)CC2)cn1 [Ex. 21, 4-(6-(1-(((6-methoxypyridin-3-yl)methyl)imino)-1-oxothiomorpholinyl)pyridin-3-yl)-6-(1-methyl-1H-pyrazole-4-yl)pyrazolo[1,5-a]pyrazine-3-carbonitrile] | 1.02 | 7.83 | 0.528 | 21.3 | 6.42 | – | – | – | –
CC(C)(O)COc1cc(-c2ccc(N3CCC(N=S(C)(C)=O)CC3)nc2)c2c(C#N)cnn2c1 [Ex. 8, 4-(6-(4-((dimethyloxo-λ^4-sulfinyl)amino)piperidin-1-yl)pyridin-3-yl)-6-(2-hydroxy-2-methylpropoxy)pyrazolo[1,5-a]pyridine-3-carbonitrile] | – | – | – | – | – | 9.45 | 63.6 | 5.89 | –
CC(C)CN=S1(=O)CCN(c2ccc(-c3cc(-c4cnn(C)c4)cn4ncc(C#N)c34)cn2)CC1 [Ex. 13, 4-(6-(1-(isobutylimino)-1-oxothiomorpholinyl)pyridin-3-yl)-6-(1-methyl-1H-pyrazole-4-yl)pyrazolo[1,5-a]pyridine-3-carbonitrile] | 0.89 | 5.1 | 0.416 | 16.3 | 6.55 | – | – | – | –
Cn1cc(-c2cn3ncc(C#N)c3c(-c3ccc(N4CCC(N=S(C)(C)=O)CC4)nc3)n2)cn1 [Ex. 23, 4-(6-(4-((dimethyloxo-λ^4-sulfinyl)amino)piperidin-1-yl)pyridin-3-yl)-6-(1-methyl-1H-pyrazole-4-yl)pyrazolo[1,5-a]pyrazine-3-carbonitrile] | 4.09 | 25 | 2.16 | – | – | – | – | – | –
COc1ccc(N=S2(=O)CCN(c3ccc(-c4nc(-c5cnn(C)c5)cn5ncc(C#N)c45)cn3)CC2)cn1 [Ex. 22, 4-(6-(1-((6-methoxypyridin-3-yl)imino)-1-oxothiomorpholinyl)pyridin-3-yl)-6-(1-methyl-1H-pyrazole-4-yl)pyrazolo[1,5-a]pyrazine-3-carbonitrile] | – | – | – | – | – | 0.673 | 3.24 | 0.41 | –
CC(C)(O)COc1cc(-c2ccc(N3CCS(=O)(=NC4CCNCC4)CC3)nc2)c2c(C#N)cnn2c1 [Ex. 7, 6-(2-hydroxy-2-methylpropoxy)-4-(6-(1-oxo-1-(piperidin-4-ylimino)thiomorpholinyl)pyridin-3-yl)pyrazolo[1,5-a]pyridine-3-carbonitrile] | – | – | – | – | – | 18.1 | 165 | 12.6 | –
COc1ccc(CN=S2(=O)CCN(c3ccc(-c4cc(OCC(C)(C)O)cn5ncc(C#N)c45)cn3)CC2)cn1 [Ex. 5, 6-(2-hydroxy-2-methylpropoxy)-4-(6-(1-(((6-methoxypyridin-3-yl)methyl)imino)-1-oxothiomorpholinyl)pyridin-3-yl)pyrazolo[1,5-a]pyridine-3-carbonitrile] | – | – | – | – | – | 3.62 | 17.9 | 2.09 | –
Cn1cc(-c2cn3ncc(C#N)c3c(-c3ccc(N4CCC(N=[S@@](C)(=O)c5ccccc5)CC4)nc3)n2)cn1 [Ex. 24, 4-(6-(4-(((S)—S-methyl-S-phenyl-oxo-λ^4-sulfinyl)amino)piperidin-1-yl)pyridin-3-yl)-6-(1-methyl-1H-pyrazole-4-yl)pyrazolo[1,5-a]pyrazine-3-carbonitrile] | – | – | – | – | – | 4.06 | 26.3 | 1.93 | –
CC(C)(O)COc1cc(-c2ccc(N3CCS(=N)(=O)CC3)nc2)c2c(C#N)cnn2c1 [Ex. 2, 6-(2-hydroxy-2-methylpropoxy)-4-(6-(1-imino-1-oxothiomorpholinyl)pyridin-3-yl)pyrazolo[1,5-a]pyridine-3-carbonitrile] | – | – | – | – | – | 4.23 | 21.2 | 2.81 | –
COc1ccc(CN2C3CC2CN(c2ccc(-c4cc(OCC(C)(C)O)cn5ncc(C#N)c45)cn2)C3)cn1 [LOXO292, reference compound] | – | – | – | – | > 1000 | – | – | – | 6.08
CC(C)(O)COc1cc(-c2ccc(N3CCC(N=[S@@](C)(=O)c4ccccc4)CC3)nc2)c2c(C#N)cnn2c1 [Ex. 9, 4-(6-(4-(((S)—S-methyl-S-phenyl-oxo-λ^4-sulfinyl)amino)piperidin-1-yl)pyridin-3-yl)-6-(2-hydroxy-2-methylpropoxy)pyrazolo[1,5-a]pyridine-3-carbonitrile] | – | – | – | – | – | 14.2 | 138 | 8.14 | –
CC(C)(O)COc1cc(-c2ccc(N3CCC(N=[S@](C)(=O)c4ccccc4)CC3)nc2)c2c(C#N)cnn2c1 [Ex. 10, 4-(6-(4-(((R)—S-methyl-S-phenyl-oxo-λ^4-sulfinyl)amino)piperidin-1-yl)pyridin-3-yl)-6-(2-hydroxy-2-methylpropoxy)pyrazolo[1,5-a]pyridine-3-carbonitrile] | – | – | – | – | – | 6.18 | 36 | 4.59 | –
COc1ccc(N=S2(=O)CCN(c3ccc(-c4cc(OCC(C)(C)O)cn5ncc(C#N)c45)cn3)CC2)cn1 [Ex. 3, 6-(2-hydroxy-2-methylpropoxy)-4-(6-(1-((6-methoxypyridin-3-yl)imino)-1-oxothiomorpholinyl)pyridin-3-yl)pyrazolo[1,5-a]pyridine-3-carbonitrile] | – | – | – | – | – | 1.66 | 3.78 | 0.993 | –
Cn1cc(-c2cc(-c3ccc(N4CCC(N=[S@@](C)(=O)c5ccccc5)CC4)nc3)c3c(C#N)cnn3c2)cn1 [Ex. 17, 4-(6-(4-(((S)—S-methyl-S-phenyl-oxo-λ^4-sulfinyl)amino)piperidin-1-yl)pyridin-3-yl)-6-(1-methyl-1H-pyrazole-4-yl)pyrazolo[1,5-a]pyridine-3-carbonitrile] | – | – | – | – | – | 1.49 | 10.6 | 0.776 | –
CC(C)CN=S1(=O)CCN(c2ccc(-c3cc(OCC(C)(C)O)cn4ncc(C#N)c34)cn2)CC1 [Ex. 4, 6-(2-hydroxy-2-methylpropoxy)-4-(6-(1-(isobutylimino)-1-oxothiomorpholinyl)pyridin-3-yl)pyrazolo[1,5-a]pyridine-3-carbonitrile] | – | – | – | – | – | 6.74 | 55.7 | 4.59 | –
